Data reported in paper PMC12539867, “Systematic identification of terpene synthases from sacred lotus (Nelumbo nucifera) and heterologous biosynthesis of the insecticidal and antimicrobial compound γ-eudesmol” (Horticulture Research, 2025).

How the values were obtained:
NnTPS10 = test system: T1, NnTPS10; test: steady-state kinetics, purified enzyme; type: biochemical, Nelumbo nucifera; settings: 25 °C, pH 7.5
T1 construct: TPS-a; 565 residues; codon-optimised; purified from E. coli for kinetics; S. cerevisiae JCR27 for mutants; N314, L530, V537; D461-Y537-D541 triad also printed

NnTPS5 = target: T2, NnTPS5 (Nelumbo nucifera, UniProt A0A822ZHR2); test: yeast co-expression with GGPPS and NnTPS6 or NnTPS7, GC-MS of ent-kaurene; type: cell-based; settings: substrate formed in the cell
T2 construct: gene HUJ06_002290; codon-optimised; S. cerevisiae JCR27 with NnTPS6 or NnTPS7 and GGPPS
T2 sequence (A0A822ZHR2 41-812): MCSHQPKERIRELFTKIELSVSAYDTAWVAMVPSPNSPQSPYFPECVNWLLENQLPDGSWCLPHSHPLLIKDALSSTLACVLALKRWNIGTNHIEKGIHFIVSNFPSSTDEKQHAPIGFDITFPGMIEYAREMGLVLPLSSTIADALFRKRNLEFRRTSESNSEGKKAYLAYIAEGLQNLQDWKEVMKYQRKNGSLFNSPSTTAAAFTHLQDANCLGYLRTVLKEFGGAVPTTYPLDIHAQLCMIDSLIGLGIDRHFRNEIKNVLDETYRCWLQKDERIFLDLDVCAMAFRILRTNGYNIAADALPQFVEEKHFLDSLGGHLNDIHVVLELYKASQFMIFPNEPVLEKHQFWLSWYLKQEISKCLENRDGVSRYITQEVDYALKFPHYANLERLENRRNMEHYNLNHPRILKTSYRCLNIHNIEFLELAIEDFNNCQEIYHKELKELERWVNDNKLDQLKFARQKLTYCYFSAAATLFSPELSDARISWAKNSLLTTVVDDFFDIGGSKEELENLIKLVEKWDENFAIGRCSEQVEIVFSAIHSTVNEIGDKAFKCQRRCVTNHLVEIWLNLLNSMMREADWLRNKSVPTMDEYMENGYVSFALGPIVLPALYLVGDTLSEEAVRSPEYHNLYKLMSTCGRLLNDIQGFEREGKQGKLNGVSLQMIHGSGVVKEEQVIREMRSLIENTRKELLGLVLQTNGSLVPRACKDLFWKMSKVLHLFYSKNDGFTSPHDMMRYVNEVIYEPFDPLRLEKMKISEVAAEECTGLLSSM

Row | SMILES | Km (NnTPS10) | yeast co-expression with GGPPS and NnTPS6 or NnTPS7, GC-MS of ent-kaurene (NnTPS5)
1 | CC(C)=CCC/C(C)=C/CC/C(C)=C/COP(=O)(O)OP(=O)(O)O [FPP] | 16.7 µM | –
2 | C=C1CC[C@@H]2C(C)(C)CCC[C@@]2(C)[C@@H]1CC/C(C)=C/COP(=O)(O)OP(=O)(O)O [ent-CPP] | – | combining NnTPS6, NnTPS5, and GGPPS, a new product (D1) can be identified as ent-kaurene
